This is an account of results in patent US20070142363A1, “Novel diazabicyclonene derivatives and use thereof” (ACTELION PHARMACEUTICALS LTD, priority 2003, published 2007).

This assay addresses T1, human recombinant renin (Homo sapiens, UniProt P00797).
T1 sequence (P00797 67-406): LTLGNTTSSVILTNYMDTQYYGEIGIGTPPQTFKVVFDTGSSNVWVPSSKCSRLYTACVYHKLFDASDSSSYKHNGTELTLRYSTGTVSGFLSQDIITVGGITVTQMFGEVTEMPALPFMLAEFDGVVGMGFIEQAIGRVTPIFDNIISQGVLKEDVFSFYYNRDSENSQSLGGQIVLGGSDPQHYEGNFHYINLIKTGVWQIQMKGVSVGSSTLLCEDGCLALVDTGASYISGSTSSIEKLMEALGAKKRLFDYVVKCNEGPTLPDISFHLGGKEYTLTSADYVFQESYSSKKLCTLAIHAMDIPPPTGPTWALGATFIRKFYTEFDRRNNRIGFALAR
The experiment in a line: Inhibition of human recombinant renin (enzymatic in vitro assay, Ang I detected by EIA). It counts as biochemical. As to conditions: human recombinant renin 0.16 ng/mL, synthetic human angiotensin(1-14) 0.5 μM, 37° C. for 3 h. How it is done:
Inhibition of Human Recombinant Renin by the Compounds of the Invention The enzymatic in vitro assay was performed in 384-well polypropylene plates (Nunc). The assay buffer consisted of 10 mM PBS (Gibco BRL) including 1 mM EDTA and 0.1% BSA. The incubates were composed of 50 μL per well of an enzyme mix and 2.5 μL of renin inhibitors in DMSO. The enzyme mix was premixed at 4° C. and consists of the following components: • human recombinant renin (0.16 ng/mL) * synthetic human angiotensin(1-14) (0.5 μM) • hydroxyquinoline sulfate (1 mM) The mixtures were then incubated at 37° C. for 3 h. To determine the enzymatic activity and its inhibition, the accumulated Ang I was detected by an enzyme immunoassay (EIA) in 384-well plates (Nunc). 5 μL of the incubates or standards were transferred to immuno plates which were previously coated with a covalent complex of Ang I and bovine serum albumin (Ang I—BSA). 75 μL of Ang I-antibodies in essaybuffer above including 0.01% Tween 20 were added and a primary incubation made at 4° C. overnight. The plates were washed 3 times with PBS including 0.01% Tween 20, and then incubated for 2 h at rt with an antirabbit-peroxidase coupled antibody (WA 934, Amersham).

In general, IC50 refers to the concentration that inhibits the measured activity by half. With `Cc1cc(Cl)c(OCCOc2ccc(C3=C(C(=O)N(Cc4ccnc(OCCO)c4C)C4CC4)[C@H]4CNC[C@@H](C3)N4)cc2)c(Cl)c1` (racemic) [Example 4, (rac.)-(1R*, 5S*)-7-{4-[2-(2,6-Dichloro-4-methylphenoxy)ethoxy]phenyl}-3,9-diazabicyclo[3.3.1]non-6-ene-6-carboxylic Acid Cyclopropyl-[2-(2-hydroxy-ethoxy)-3-methylpyridin-4-ylmethyl]amide], the IC50 came out at 1.43 nM. With `Cc1c(CN(C(=O)C2=C(c3ccc(CCCOc4c(F)ccc(F)c4Cl)cc3)C[C@@H]3CNC[C@H]2N3)C2CC2)ccnc1OCCO` (racemic) [Example 3, (rac.)-(1R*, 5S*)-7-{4-[3-(2-Chloro-3,6-difluorophenoxy)propyl]phenyl}-3,9-diazabicyclo[3.3.1]non-6-ene-6-carboxylic Acid Cyclopropyl-[2-(2-hydroxy-ethoxy)-3-methylpyridin-4-ylmethyl]amide] the figure was 0.82 nM; with `Cc1c(CN(C(=O)C2=C(c3ccc(CCCOc4c(F)ccc(F)c4Cl)cc3)C[C@@H]3CNC[C@H]2N3)C2CC2)ccnc1OCCCO` (racemic) [Example 1, (rac.)-(1R*, 5S*)-7-{4-[3-(2-Chloro-3,6-difluorophenoxy)propyl]phenyl}-3,9-diazabicyclo[3.3.1]non-6-ene-6-carboxylic Acid Cyclopropyl-[2-(3-hydroxy-propoxy)-3-methylpyridin-4-ylmethyl]amide], 1.16 nM. Take `Cc1cc(Cl)c(OCCOc2ccc(C3=C(C(=O)N(Cc4ccnc(OCCCO)c4C)C4CC4)[C@H]4CNC[C@@H](C3)N4)cc2)c(Cl)c1` (racemic) [Example 2, (rac.)-(1R*, 5S*)-7-{4-[2-(2,6-Dichloro-4-methylphenoxy)ethoxy]phenyl}-3,9-diazabicyclo[3.3.1]non-6-ene-6-carboxylic Acid Cyclopropyl-[2-(3-hydroxy-propoxy)-3-methylpyridin-4-ylmethyl]amide]: the IC50 turned out to be 0.49 nM.
